# Experimental data as given in publication PMC10541198, “Specific quinone reductase 2 inhibitors reduce metabolic burden and reverse Alzheimer’s disease phenotype in mice” (The Journal of Clinical Investigation, 2023).
# “Also recorded” adds a separate entry of the source.
# Columns and labels:
# QR1 = target: T1, QR1 (Homo sapiens, UniProt P15559); assay: QR1 selectivity assay, fluorescence; format: biochemical; settings: Figure 2D; readout not stated
# T1 construct: purchased Sigma-Aldrich
# From the text: A drug discovery campaign strategy was initiated to screen compounds for QR2-specific, cell-free inhibition and in vitro activity, followed by SAR optimization (Figure 2A) to achieve highly specific and potent QR2 inhibitor synthesis. In order to establish a varied and chemically amenable starting point, we developed a high-throughput QR2 assay (Supplemental Methods) that we screened against a library with approximately 200,000 compounds. […] Compounds that replicated the initial hit result were then assayed similarly against QR1 to evaluate compound specificity (Figure 2B). From the HTS, a chemically tractable and attractive series of compounds containing a sulfone flanked by an amine and a heterocycle were identified and selected for SAR development (Figure 2C, Supplemental Methods, Supplemental Table 1, and Supplemental Table 2). […]
# menadione and 10 nM of QR2) were dispensed in 1536-well black Nunc plates (Thermo-Fisher) using aMultidrop™ Combi Reagent Dispenser (Thermo-Fisher) and pre-incubated with compounds for 10min. BNAH (200µM) was t hen added (3 µL) to the reaction using a BioNex Solutions BNX1536plate washer and the plates were incubated for another 10 min. Fluorescence intensity was followed in a PHERAstar FS multi-mode plate reader (BMG Labtech) us i ng an optic module with excitation at 360 nm and emission at 470 nm. The initial HTS includedapproximately 200,000 compounds at a single concentrationof 5 µM. The chemical libraries used were Selleck Chemicals Bioactives, the Drug-like set from Enamine, HitFinder collection from Maybridge, Spectrum Collection from Microsource, Lopa c from Sigma -Aldrich and the diversity set s from Chem Div and Che m Br idge .
# Initial ‘‘hit’’ compounds were defined as causing >30% reduction of enzyme activity. Compounds suspected to be fluorescent were re -assayed in an absorbance assay at 350 nm using the same reaction but in a higher volume (100 µL), in a transparent plate (Greiner Bio- One). ‘‘Hit’’ compounds resulting from both the fluorescence and absorbance assay wer e t ested in a concentration- response, and IC50 values were de t er mi ne d. In parallel, the same
# [1] = Solubility in water / saline; format: physicochemical
# T1 sequence (P15559 whole entry): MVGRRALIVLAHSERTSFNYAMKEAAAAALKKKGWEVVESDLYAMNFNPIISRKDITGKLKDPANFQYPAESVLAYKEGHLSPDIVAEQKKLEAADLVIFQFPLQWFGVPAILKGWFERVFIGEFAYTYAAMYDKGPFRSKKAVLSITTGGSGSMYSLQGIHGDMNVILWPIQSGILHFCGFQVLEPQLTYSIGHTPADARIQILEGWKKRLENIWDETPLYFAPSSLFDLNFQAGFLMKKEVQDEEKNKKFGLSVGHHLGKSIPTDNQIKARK
SMILES,IC50 (QR1),solubility in water [1],"solubility in saline vehicle ([1]; PK formulations 2 and 10 mg/ml, HCl salt)"
Cc1ccc(-c2cn3cccc(C)c3n2)cc1S(=O)(=O)N1CCNCC1 [YB-537],> 9.99 µM,complete solution; also recorded: water soluble,fully dissolved
Cc1ccc(-c2cn3cccc(C)c3n2)cc1S(=O)(=O)N1CCC(C)CC1 [YB-800],> 9.99 µM,–,–
